These results are taken from US8110681B2, “Compounds for the treatment of spinal muscular atrophy and other uses” (The United States of America as represented by the …, priority 2006, dated 2012).

Read-outs that look alike come from different tables or passages of the source.

In the test the test system is SMN2-linked luciferase-reporter gene construct. Kind of test: SMN splice reporter assay (SMN2-linked luciferase reporter, Example 10). It counts as cell-based. The settings on record: for maximal fold induction: read-out: SMN Splice Reporter Assay (Example 10) Avg MaxFold Increase. In outline: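 Values are fold-increase in luciferase signal relative to baseline cells without compound. The cervical carcinoma line used holds a fusion of alternatively spliced SMN2 sequence and luciferase. Readable frame, and thus signal, arises only with exon 7-including splicing.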
Background: In a reporter assay the amount or activity of a reporter protein is the signal.

[1] abbreviates: SMN2-linked luciferase reporter, average.
[2] abbreviates: maximum fold increase of reporter signal, average.
Setting [3] is: SMN2-linked luciferase reporter, average maximum fold increase.

For the compound `CCc1cccc2c1C(=O)N(c1ccc(C(C)C(=O)O)cc1)C2` (stereo not drawn) [ALB-113395], a half-maximal effect under setting [1] (EC50) was put at 1840 nM. For the same compound, under setting [2], the maximal fold induction came out at 1.49.
`CC(C(=O)O)c1ccc(N2Cc3cc(OC4CCCC4)ccc3C2=O)cc1` (stereo not drawn) [ALB-113963]: the maximal fold induction under setting [2] amounted to 1.14.
In the case of `CC(C(=O)O)c1ccc(N2Cc3c(cccc3-c3cccnc3)C2=O)cc1` (stereo not drawn) [ALB-112224], the maximal fold induction under setting [2] was 1.3.
In the case of `CCc1ccc2c(c1)C(=O)N(c1ccc(C(C)COC)cc1)C2` (stereo not drawn) [ALB-115328], under setting [1], a half-maximal effect (EC50) was put at 298 nM. Also, under setting [2], the maximal fold induction turned out to be 1.5.
The matching figures for `Cc1ccc(-c2ccc3c(c2)C(=O)N(c2ccc(C(C)C(=O)O)cc2)C3)cc1` (stereo not drawn) [ALB-112447]: 2020 nM and 1.27.
On to `CC(C(=O)OC(C)(C)C)c1ccc(N2Cc3ccccc3C2=O)cc1-c1ccc(Cl)c(Cl)c1` (stereo not drawn) [ALB-111963], for which the maximal fold induction under setting [2] stood at 1.02.
For `CCCC(C)(C(=O)O)c1ccc(N2Cc3ccccc3C2=O)cc1` (stereo not drawn) [ALB-111857], the maximal fold induction under setting [2] turned out to be 1.07.
With `Cc1ccc(N2Cc3cc4c(cc3C2=O)OCCO4)cc1` [ALB-116363], a half-maximal effect under setting [1] (EC50) was put at 24 nM. Further, the maximal fold induction under setting [3] is 1.54.
For `CC(C(=O)O)c1ccc(N2Cc3cc4c(cc3C2=O)OCO4)cc1` (stereo not drawn) [ALB-114782], a half-maximal effect under setting [1] (EC50) was put at 81 nM. Besides, under setting [2], the maximal fold induction is 1.65.
For `CC(C(=O)O)c1ccc(N2Cc3cc(F)ccc3C2=O)cc1` (stereo not drawn) [ALB-113754], the EC50 (commonly the midpoint of the concentration-response curve) under setting [1] was found to be 142 nM. Moreover, under setting [2], the maximal fold induction came to 1.7.
As for `CC(C(=O)OC(C)(C)C)c1ccc(N2Cc3ccc(N(C)C(=O)c4ccccc4)cc3C2=O)cc1` (stereo not drawn) [ALB-112169], under setting [2], the maximal fold induction came out at 1.07.
In the case of `CC(C)OCC(C)c1ccc(N2Cc3ccccc3C2=O)cc1` (stereo not drawn) [ALB-114935], the EC50 under setting [1] turned out to be 977 nM. The maximal fold induction under setting [2] stood at 1.26.
`CC(C(=O)O)c1ccc(N2Cc3ccc(-c4cccs4)cc3C2=O)cc1` (stereo not drawn) [ALB-112515] yielded an EC50 under setting [1] of 494 nM. Further, the maximal fold induction under setting [2] was determined as 1.62.
As for `COc1ccc2c(c1)CN(c1ccc(C(C)C(=O)O)cc1)C2=O` (stereo not drawn) [ALB-111959], the EC50 under setting [1] is 451 nM. Moreover, the maximal fold induction under setting [2] was 1.26.
For the compound `CC(C(=O)O)c1ccc(N2Cc3ccc(OCc4ccccc4)cc3C2=O)cc1` (stereo not drawn) [ALB-115326], the maximal fold induction under setting [2] turned out to be 1.24.
Still for that read-out and setting: the figure for `CC(C(=O)OC(C)(C)C)c1ccc(N2Cc3cc(-c4ccc(Cl)cc4)ccc3C2=O)cc1` (stereo not drawn) [ALB-111886] is 1.07.
For the compound `CC(C(=O)O)c1ccc(N2Cc3ccc(C4CCCC4)cc3C2=O)cc1` (stereo not drawn) [ALB-114607], under setting [1], the EC50 is 35 nM. Also, the maximal fold induction under setting [2] came to 1.51.
`CC(C(=O)NS(=O)(=O)C(C)C)c1ccc(N2Cc3ccccc3C2=O)cc1` (stereo not drawn) [ALB-111856] yielded an EC50 under setting [1] of 568 nM. Besides, the maximal fold induction under setting [2] is 1.14.
For `CC(C(=O)O)c1ccc(N2Cc3cccc(Br)c3C2=O)cc1` (stereo not drawn) [ALB-112067] the same measures were 9710 nM and 1.36.
Under setting [1], `O=C1c2ccccc2CN1c1ccc(C2CCCC2)cc1` [ALB-115068] gave an EC50 of 53 nM. In addition, the maximal fold induction under setting [2] was found to be 1.41.
The compound `CC(C(=O)O)c1ccc(N2Cc3ccc(/C=C/C(F)(F)F)cc3C2=O)cc1` (stereo not drawn) [ALB-115501] showed an EC50 under setting [1] of 2320 nM. The maximal fold induction under setting [2] stood at 1.39.
On to `CC(C)c1ccc(N2Cc3cc(OC(F)F)ccc3C2=O)cc1` [ALB-118159], for which the midpoint of the response under setting [1], the EC50, lay at 2090 nM. For the same compound, under setting [3], the maximal fold induction worked out at 1.32.
Turning to `COCC(C)c1ccc(N2Cc3ccc(C)cc3C2=O)cc1` (stereo not drawn) [ALB-115072], the EC50 under setting [1] worked out at 32 nM. Moreover, under setting [2], the “SMN Splice Reporter Assay (Example 10) Avg MaxFold Increase” value is 1.28.
`CC(C(=O)O)c1ccc(N2Cc3ccc(F)cc3C2=O)cc1` (stereo not drawn) [ALB-113836]: it took 544 nM to reach a half-maximal effect under setting [1] (EC50). For the same compound, under setting [2], the maximal fold induction amounted to 1.78.
For the compound `CC(C(=O)NS(=O)(=O)c1ccccc1)c1ccc(N2Cc3ccccc3C2=O)cc1` (stereo not drawn) [ALB-111747], under setting [2], the maximal fold induction was determined as 1.04.
Regarding `CC(C(=O)O)c1ccc(N2Cc3cc(N(C)C)ccc3C2=O)cc1` (stereo not drawn) [ALB-113646], under setting [2], the maximal fold induction is 1.05.
In turn, `CCOc1ccc2c(c1)C(=O)N(c1ccc(C(C)C(=O)O)cc1)C2` (stereo not drawn) [ALB-113102] had an EC50 under setting [1] of 62 nM. The maximal fold induction under setting [2] worked out at 1.83.
`Cc1ccc(N2Cc3ccccc3C2=O)cc1` [ALB-114898] registered an EC50 under setting [1] of 302 nM. Also, the maximal fold induction under setting [2] was found to be 1.36.
With `CC(C(=O)OC(C)(C)C)c1ccc(N2Cc3ccc(-c4cncnc4)cc3C2=O)cc1` (stereo not drawn) [ALB-112476], the maximal fold induction under setting [2] was found to be 1.08.
On to `CC(C)c1ccc(N2Cc3ccc(O)c(O)c3C2=O)cc1` [ALB-117903], for which the maximal fold induction under setting [3] was 1.07.
Compound `CCC(C(=O)OC(C)(C)C)c1ccc(N2Cc3ccccc3C2=O)cc1` (stereo not drawn) [ALB-112364] had an EC50 under setting [1] of 3260 nM. The maximal fold induction under setting [2] was found to be 1.21.
Take `CC(C(=O)O)c1ccc(N2Cc3ccc(-c4ccc(Cl)cc4)cc3C2=O)cc1` (stereo not drawn) [ALB-112449]: the maximal fold induction under setting [2] worked out at 1.16.
Under setting [1], `CC(C)c1ccc(N2Cc3cccc(I)c3C2=O)cc1` [ALB-117753] gave an EC50 of 183 nM. Further, the maximal fold induction under setting [2] is 1.6.
As to `C=Cc1ccc2c(c1)CN(c1ccc(C(C)C(=O)O)cc1)C2=O` (stereo not drawn) [ALB-113390], the EC50 under setting [1] came out at 10400 nM. In addition, the maximal fold induction under setting [2] was 1.29.
In the case of `O=C1c2cc3c(cc2CN1c1ccc(C2CC2)cc1)OCCO3` [ALB-117043], it took 68 nM to reach a half-maximal effect under setting [1] (EC50). Also, the maximal fold induction under setting [3] came out at 1.57.
`CCOCC(C)c1ccc(N2Cc3ccccc3C2=O)cc1` (stereo not drawn) [ALB-114744]: the maximal fold induction under setting [2] worked out at 1.18.
Turning to `CC(CF)c1ccc(N2Cc3ccc(C4CCCC4)cc3C2=O)cc1` (stereo not drawn) [ALB-114740], under setting [1], a half-maximal response (EC50) required 822 nM. In addition, under setting [2], the maximal fold induction was 1.22.
As for `CC(C(=O)OC(C)(C)C)c1ccc(N2Cc3c(C#N)cccc3C2=O)cc1` (stereo not drawn) [ALB-112350], the maximal fold induction under setting [2] turned out to be 1.18.
As to `C=Cc1ccc2c(c1)C(=O)N(c1ccc(C(C)C(=O)OC(C)(C)C)cc1)C2` (stereo not drawn) [ALB-113210], the response under setting [1] was half-maximal at 2880 nM (EC50). The maximal fold induction under setting [2] came out at 1.15.
Take `CC(C(=O)OC(C)(C)C)c1ccc(N2Cc3cccc(C#N)c3C2=O)cc1` (stereo not drawn) [ALB-112472]: under setting [2], the maximal fold induction stood at 1.12.
Under setting [1], `CC(C(=O)O)c1ccc(N2Cc3cc(-c4cccs4)ccc3C2=O)cc1` (stereo not drawn) [ALB-112063] yielded an EC50 of 909 nM. Under setting [2], the maximal fold induction came out at 1.2.
Under setting [1], `CCCCCOc1ccc2c(c1)CN(c1ccc(C(C)C(=O)O)cc1)C2=O` (stereo not drawn) [ALB-113759] came in with an EC50 of 510 nM. Besides, the maximal fold induction under setting [2] was determined as 1.22.
For `CC(C(=O)OC(C)(C)C)c1ccc(N2Cc3ccccc3C2=O)cc1` (stereo not drawn) [ALB-111738] the same measures were 2300 nM and 1.17.
`CC(C)(C)c1ccc(N2Cc3ccc(OC(F)F)cc3C2=O)cc1` [ALB-119043] returned an EC50 under setting [1] of 992 nM. Also, under setting [3], the maximal fold induction came out at 1.39.
Under setting [1], `CCc1ccc2c(c1)CN(c1ccc(C(C)C(=O)O)cc1)C2=O` (stereo not drawn) [ALB-113490] returned an EC50 of 218 nM. In addition, the maximal fold induction under setting [2] was 1.48.
Take `CC(C)c1ccc(N2Cc3cc(N)ccc3C2=O)cc1` [ALB-117747]: the EC50 under setting [1] turned out to be 34 nM. Besides, under setting [2], the maximal fold induction came out at 1.49.
With `O=C1c2cc3c(cc2CN1c1ccc(C2CCCCC2)cc1)OCCO3` [ALB-116417], the maximal fold induction under setting [3] stood at 1.11.
For `CC(C)(C)OC(=O)C1(c2ccc(N3Cc4ccccc4C3=O)cc2)CC1` [ALB-112365], under setting [1], the EC50 is 12400 nM. Moreover, under setting [2], the maximal fold induction worked out at 1.5.
`COc1ccc(-c2ccc3c(c2)CN(c2ccc(C(C)C(=O)O)cc2)C3=O)cc1` (stereo not drawn) [ALB-111892] yielded an EC50 under setting [1] of 4310 nM. Also, the maximal fold induction under setting [2] was found to be 1.46.
`CC(C(=O)O)c1ccc(N2Cc3ccccc3C2=O)cc1Br` (stereo not drawn) [ALB-111962]: the maximal fold induction under setting [2] was found to be 1.08.
Consider `COCC(C)c1ccc(N2Cc3ccc(CC(C)C)cc3C2=O)cc1` (stereo not drawn) [ALB-115976], for which the EC50 under setting [1] was 179 nM. Also, the maximal fold induction under setting [2] is 1.29.
Compound `CC(C)c1ccc(N2Cc3cc(O)ccc3C2=O)cc1` [ALB-118277] returned an EC50 under setting [1] of 27 nM. Also, the maximal fold induction under setting [3] worked out at 1.15.
For the compound `CC(C)c1ccc2c(c1)CN(c1ccc(C(C)C(=O)O)cc1)C2=O` (stereo not drawn) [ALB-113561], the maximal fold induction under setting [2] is 1.21.
On the same count and under the same terms, the same measure for `CC(C(=O)O)c1ccc(N2Cc3ccccc3C2=O)c(-c2ccc(Cl)cc2)c1` (stereo not drawn) [ALB-112164]: 1.05.
Take `CCCN(C)C(=O)Nc1ccc2c(c1)C(=O)N(c1ccc(C(C)C)cc1)C2` [ALB-118898]: under setting [3], the maximal fold induction was 1.06.
For the compound `Cc1cccc2c1CN(c1ccc(C(C)C)cc1)C2=O` [ALB-115947], under setting [1], the response was half-maximal at 114 nM (EC50). Also, the maximal fold induction under setting [2] was found to be 1.39.
`CC(C(=O)O)c1ccc(N2Cc3ccc(NC(=O)c4ccc(Cl)cc4)cc3C2=O)cc1` (stereo not drawn) [ALB-111983]: under setting [2], the maximal fold induction worked out at 1.06.
Take `CCCc1ccc(N2Cc3ccc(Br)cc3C2=O)cc1` [ALB-115589]: the EC50 under setting [1] was 143 nM. In addition, the maximal fold induction under setting [2] was 1.39.
For `CC(C(=O)O)c1ccc(N2Cc3ccccc3C2=O)c(Br)c1` (stereo not drawn) [ALB-112004], under setting [1], the EC50 was 1250 nM. Also, under setting [2], the maximal fold induction was determined as 1.08.
As to `COC(=O)C(C)c1ccc(N2Cc3ccccc3C2=O)cc1` (stereo not drawn) [ALB-111731], under setting [1], the EC50 was found to be 174 nM. Moreover, the maximal fold induction under setting [2] worked out at 1.43.
With `CC(C(=O)OC(C)(C)C)c1ccc(N2Cc3ccc(N)cc3C2=O)cc1` (stereo not drawn) [ALB-111745], under setting [1], it took 2120 nM to reach a half-maximal effect (EC50). Besides, under setting [2], the maximal fold induction stood at 1.17.
`CCc1ccc(N2Cc3cc4c(cc3C2=O)OCCO4)cc1` [ALB-116240] had an EC50 under setting [1] of 33 nM. Under setting [3], the maximal fold induction is 1.62.
Take `CC(C(=O)OC(C)(C)C)c1ccc(N2Cc3cccc(-c4cccs4)c3C2=O)cc1` (stereo not drawn) [ALB-112154]: the maximal fold induction under setting [2] turned out to be 1.11.
`O=C(O)Cc1ccc(N2Cc3ccccc3C2=O)cc1` [ALB-112235]: the maximal fold induction under setting [2] was 0.941.
